In one data set the target is VLA-4 (Homo sapiens, UniProt P05556+P13612). The experiment in a line: cell-based. Format: cell-based. Details: host or cells: Jurkat (human T lymphoblastic line). In outline:
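51Cr-labelled Jurkat cells (human T lymphoblastic) were preincubated 30 min at about 22 °C with peptide, then allowed to bind 30 min at 37 °C to wells coated with CS-1 peptide or CS-1-OVA. After washing, bound cells were lysed with SDS and counted. IC50 is the peptide concentration halving binding, normalized to plate controls.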

In the next data set the test system is Jurkat T cell line. The experiment in a line: Jurkat cell binding to frozen human RA synovial sections. The settings on record: 10-mer at 500 μg/ml; inhibitor peptide at its IC50 value. It counts as cell-based. As for the experimental part:
Binding studies were carried out using the Jurkat T cell line and frozen RA synovial sections. […] Stimulated MOLT-4 cells behaved similarly.

A further data set has as its system BALB/c mice. In words: Delayed type hypersensitivity in mice (adoptive transfer, oxazolone). The settings on record: 6 mg/kg/day subcutaneously by implanted pump for 24 hours; FIG. 5. It counts as in vivo, mouse. As for the experimental part:
An adoptive transfer delayed-type hypersensitivity murine model has been developed using splenic T cells primed to oxazolone. This model is described in Elices et al., Clin. Exp. Rheum., 11(Suppl. 8):577-580 (1993), whose procedures were followed here.
Thus, BALB/c mice were shaved on the belly and painted (50 μl on the belly and 5 μl on each paw) with three percent oxazolone in acetone/olive oil (4:1) at days zero and 1. At day 5, the mice were sacrificed, their spleens removed, and splenic T cells were obtained via nylon wool columns.
Normal saline or saline containing 25×10^6 /animal of the oxazolone-immune T cells were separately injected into naive mice. The mice were then challenged by painting 10 μl of 2 percent oxazolone onto one ear each. All procedures were carried out under sterile conditions and in endotoxing-free buffers.
Prior to challenge or saline injection, the mice were implanted with pumps that subcutaneously administered normal saline, normal saline containing the peptide N-phenylacetyl-Leu-Asp-Phe-D-Pro-NH2 or normal saline containing a peptide with a scrambled sequence continually at 6 mg/kg/day for a 24-hour time period. The swelling diameter at the site of challenge or saline injection was measured with a microcaliper 24 hours thereafter.

A further data set concerns New Zealand white rabbit. The experiment in a line: Rabbit cardiac allograft model. It counts as in vivo. As to conditions: 1 mg/kg/day injections, day 7. As for the experimental part:
New Zealand white rabbit SPF hearts were allografted into the necks of similar rabbits to assay a graft-vs-host immunorejection model and the affect of a contemplated peptide on that immunoinflammatory response. These studies were carried out by Dr. M. Rabinovitch of the Hospital for Sick Children, Toronto, Ontario, Canada.
Here, two rabbits were injected on day zero with 1 mg/kg/day of the inhibitor peptide N-phenylacetyl-Leu-Asp-Phe-D-Pro-NH2 in aqueous diluent. The two rabbits then each received a grafted heart, with the graft being made in the carotid artery to the aorta of the grafted heart, and the jugular vein to the pulmonary artery of the grafted heart. The rabbits thereafter received daily injections of the same dose of that peptide, and were sacrificed on day 7. Another animal that received normal saline injections in place of the peptide injections, also received a similarly allografted heart, and was similarly sacrificed at day 7.
The animals' blood vessels were thereafter examined histologically for evidence of arteriopathy, and particularly thickening of the intimal elastic lamina (IEL) layer of the coronary arteries. Thickening of the IEL is caused at least in part by emigration of effector cells bearing the CD2 marker such as T cells and NK cells. Clausell et al., Am. J. Path., 142(6):1772-1786 (1993). […]

Data set [1] can be described thus: Retention of potency in PBS containing 10 percent serum. As to conditions: PBS at 7.2-7.4 containing 10 percent mouse or human serum.
Another data set has as its system SJL/J mice. The experiment in a line: Experimental autoimmune encephalomyelitis in mice. It counts as in vivo. The settings on record: 1 mg/mouse intraperitoneally at days 8 and 9; versus scrambled control peptide; FIG. 6. The text has this:
Experimental autoimmune encephalomyelitis (EAE) is a demyelinating disease of the central nervous system that can be induced in susceptible strains of mice and rats by immunization with myelin basic protein, proteolipid protein (PLP), or their immunodominant T cell determinants, or by injection of CD4-positive T cell clones specific for those determinants. EAE serves as an animal model of human multiple sclerosis. In both diseases, circulating leukocytes such as T cells and monocytes penetrate the blood/brain barrier and damage myelin, resulting in paralysis.
EAE was induced in female SJL/J mice (8 to 14 weeks old) by immunization on day zero with 50 μg of a peptide corresponding to positions 139-151 of PLP emulsified in a 1:1 mixture of PBS and complete Freund's adjuvant (CFA). […]
Mice were observed daily, beginning at day 8 for clinical signs of EAE, and disease was scored on a scale of 0-5 as: 0=no disease; 1=floppy tail; 2=moderate hind limb weakness; 3=paraparesis; 4=paraplegis with moderate forelimb weakness; 5=qualdriplegis or premoribund state. […]
Summed or averaged scores for clinical signs were plotted vs. time. The area under the resulting curves was calculated between day 8 and day 35 to calculate percentage inhibition of EAE by an inhibitor peptide. The percent inhibition was calculated as follows: […]

The nature of data set [2]: Toxicity study at 600 mg/kg/day. It counts as in vivo. The text has this:
The results of this study are shown in the graph of FIG. 5 for the saline and recited inhibitor peptide treatments.

Where two headings read alike, the source gives them in different places. Square brackets hold non-standard residues; d marks the D form. Peptide text beside a SMILES is read from it. * marks the point of attachment. PhAc = O=C(Cc1ccccc1)*

VLA-4, sequence (P13612 34-1032): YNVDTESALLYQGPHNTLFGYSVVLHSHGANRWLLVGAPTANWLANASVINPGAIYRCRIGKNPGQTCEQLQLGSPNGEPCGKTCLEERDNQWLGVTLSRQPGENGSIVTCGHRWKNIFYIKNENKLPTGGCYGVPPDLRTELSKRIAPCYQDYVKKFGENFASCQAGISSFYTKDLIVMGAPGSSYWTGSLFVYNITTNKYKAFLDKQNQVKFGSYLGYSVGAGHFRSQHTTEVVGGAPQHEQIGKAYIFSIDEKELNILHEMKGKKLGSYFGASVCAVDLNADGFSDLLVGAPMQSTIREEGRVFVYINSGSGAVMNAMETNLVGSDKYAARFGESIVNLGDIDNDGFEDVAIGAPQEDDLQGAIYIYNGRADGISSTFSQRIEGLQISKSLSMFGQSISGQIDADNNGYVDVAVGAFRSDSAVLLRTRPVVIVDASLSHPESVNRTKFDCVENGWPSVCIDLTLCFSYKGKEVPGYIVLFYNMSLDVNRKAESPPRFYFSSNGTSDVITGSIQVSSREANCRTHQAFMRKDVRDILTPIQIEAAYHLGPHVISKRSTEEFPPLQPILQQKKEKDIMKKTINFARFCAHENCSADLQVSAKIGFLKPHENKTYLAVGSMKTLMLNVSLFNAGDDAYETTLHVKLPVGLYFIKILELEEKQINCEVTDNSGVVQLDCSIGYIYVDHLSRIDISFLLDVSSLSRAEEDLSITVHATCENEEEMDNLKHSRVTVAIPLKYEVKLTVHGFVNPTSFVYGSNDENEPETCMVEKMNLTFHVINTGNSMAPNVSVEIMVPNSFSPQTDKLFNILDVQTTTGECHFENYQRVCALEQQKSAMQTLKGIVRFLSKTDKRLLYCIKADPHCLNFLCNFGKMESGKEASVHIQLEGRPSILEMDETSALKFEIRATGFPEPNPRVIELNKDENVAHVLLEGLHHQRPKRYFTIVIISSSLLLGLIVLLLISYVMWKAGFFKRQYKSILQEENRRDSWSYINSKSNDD
VLA-4, sequence (P05556 21-798): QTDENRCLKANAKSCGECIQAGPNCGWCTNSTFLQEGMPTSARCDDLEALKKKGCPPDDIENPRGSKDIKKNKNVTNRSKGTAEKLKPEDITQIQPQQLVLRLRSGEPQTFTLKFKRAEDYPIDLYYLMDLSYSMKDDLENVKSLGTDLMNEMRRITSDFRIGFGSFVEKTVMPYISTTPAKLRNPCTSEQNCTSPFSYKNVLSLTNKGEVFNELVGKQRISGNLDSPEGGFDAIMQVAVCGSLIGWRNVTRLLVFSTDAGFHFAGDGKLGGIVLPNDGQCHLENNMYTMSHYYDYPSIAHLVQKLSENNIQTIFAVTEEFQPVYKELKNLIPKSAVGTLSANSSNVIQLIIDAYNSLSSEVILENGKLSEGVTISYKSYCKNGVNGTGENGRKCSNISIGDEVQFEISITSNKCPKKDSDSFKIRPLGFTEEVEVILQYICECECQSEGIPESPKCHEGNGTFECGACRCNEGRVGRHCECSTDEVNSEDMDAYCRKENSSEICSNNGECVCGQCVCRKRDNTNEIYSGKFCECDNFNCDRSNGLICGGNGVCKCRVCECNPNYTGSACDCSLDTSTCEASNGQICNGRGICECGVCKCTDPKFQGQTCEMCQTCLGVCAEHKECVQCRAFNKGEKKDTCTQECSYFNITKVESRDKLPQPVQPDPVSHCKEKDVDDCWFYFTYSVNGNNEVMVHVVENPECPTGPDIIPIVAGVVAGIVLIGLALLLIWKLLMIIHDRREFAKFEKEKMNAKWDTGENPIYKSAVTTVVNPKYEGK

Consider `CC[C@H](C)[C@H](NC(=O)[C@H](CCC(=O)O)NC(=O)[C@@H]1CCCN1C(=O)CN)C(=O)N[C@@H](CC(C)C)C(=O)N[C@@H](CC(=O)O)C(=O)N[C@H](C(=O)N1CCC[C@H]1C(=O)N[C@@H](CO)C(=O)N[C@H](C(=O)O)[C@@H](C)O)C(C)C` [G P E I L D V P S T free amine free acid, GPEILDVPST, reference compound] (H-GPEILDVPST-OH), for which, at VLA-4, the “RELATIVE POTENCY (relative peptide inhibition of VLA-4 binding CS-1)” value came to 1. In addition, in the data set with Jurkat T cell line, the “inhibition of Jurkat cell adhesion to RA synovial sections” value is recorded as “could be inhibited”.
For the compound `CC(C)C[C@H](NC(=O)Cc1ccccc1)C(=O)N[C@@H](CC(=O)O)C(=O)N[C@@H](Cc1ccccc1)C(=O)N1CCC[C@@H]1C(N)=O` [X L D F p phenylacetyl amide, N-phenylacetyl-Leu-Asp-Phe-D-Pro-NH2] (PhAc-LDF[dP]-NH2), the “reduction of inflammation (ear swelling diameter at challenge site)” value in the data set on BALB/c mice is on record as “reduced this type of CS-1/VLA-4-mediated immunoinflammation”. In the data set on New Zealand white rabbit (59 vessels of two rabbits, saline 35, basal about 15), the “percentage of IEL thickening based on total coronary vessel area (lesion severity)” value was “about 18%”. In the data set on New Zealand white rabbit (141 vessels of two rabbits, saline about 80, basal about 20), the “vessels exhibiting IEL thickening” value is “about 30%”. Further, the “loss of potency after 24 hours” value in data set [1] is “no loss of potency”. In addition, the “clinical signs of EAE” value with SJL/J mice is given as “marked improvement in clinical signs”. For the same compound, at VLA-4, the half-inhibitory concentration (IC50) (in general, the concentration at which inhibition is half-maximal) is approximately 500 nM and the “binding inhibition better than the standard 10-mer peptide of SEQ ID NO:3” value was “about 312 times”. Also, the “RELATIVE POTENCY (relative peptide inhibition of VLA-4 binding CS-1)” value on VLA-4 (normalized IC50 relative to standard peptide of SEQ ID NO:3 (=1), about one-tenth or less of the standard is assigned zero) is on record as 313. Besides, the toxicity entry in data set [2] was “no toxicity”.

The values above are taken from patent US5688913A, “CS-1 peptidomimetics, compositions and methods of using the same” (Cytel Corporation, priority 1995, dated 1997).
